We go through 15 molecules from article PMC6832265 (Molecules, 2019).

Assay [1] concerns the target T1, Tdp1 (Homo sapiens, UniProt Q9NUW8).
T1 construct: made in house; host or cells: Escherichia coli
The experiment in a line: Real-time detection of Tdp1 activity (5'-FAM/3'-BHQ1 oligonucleotide biosensor). The class given is biochemical. To be noted: 1.5 nM Tdp1, 50 nM oligonucleotide substrate, 26 °C. From the text:
We first studied the inhibition potency of our compounds to Tdp1 by using a real-time oligonucleotide biosensor assay that we have previously developed. The assay was based on the ability of Tdp1 to remove the fluorescence quencher from the 3’-end of DNA. The substrate is a 16-mer single-stranded oligonucleotide containing both a 5’-FAM fluorophore and a 3’-BHQ1 quencher.
A fluorophore quencher-coupled DNA-biosensor for real-time measurement of Tdp1 cleavage activity was recently designed in our laboratory. The biosensor is a 16-mer single-stranded oligonucleotide containing both a 5’-FAM fluorophore donor and a quenching 3’-BHQ1 moiety.
Recombinant protein Tdp1 was expressed in EsCherichia coli (pET 16B plasmid containing Tdp1 cDNA provided by Dr. K.W. Caldecott, University of Sussex, United Kingdom) and isolated as described. The reaction mixture in a final volume 200 μL contained Tdp1 reaction buffer (50 mM Tris-HCl, 50 mM NaCl, 7 mM β-mercaptoethanol), 50 nM oligonucleotide substrate, and varied concentrations of potential inhibitor. Purified Tdp1 was added in a final concentration of 1.5 nM.
The reaction mixtures were incubated at a constant temperature of 26 °C in a POLARstar OPTIMA fluorimeter, BMG LABTECH, GmbH, to measure fluorescence intensity every minute (Ex485/Em520 nm). Tdp1 inhibition was calculated by comparing the rate of increase in fluorescence of the biosensor in the presence of the compound to that of DMSO (1.5%) control wells. The measurements were carried out in at least two independent experiments. IC50 values were determined using a six-point concentration response curve. The data were imported into the MARS Data Analysis 2.0 program (BMG LABTECH) and the slope during the linear phase (data from 0 to 7 min) was calculated.

Assay [2] has as its target T2, recombinant Tdp1 (residues 149–608) (Homo sapiens, UniProt Q9NUW8).
T2 construct: recombinant Tdp1 (residues 149–608) was obtained from GenScript; host or cells: E. coli BL21(DE3)
The experiment in a line: Intrinsic tryptophan fluorescence quenching binding assay. The settings on record: 10 µM Tdp1, 20 mM Tris, 250 mM NaCl, pH 8; triplicate. How it is done: The binding of the synthesized compounds to recombinant Tdp1 was also tested (Table 1 and Table 2) by using an intrinsic tryptophan fluorescence quenching assay. […] As our compounds are aromatic in nature, there is a possibility that they may bind to both the active site as well as non-specifically to the DNA/peptide binding pockets. Nonetheless, our results confirmed that the compounds were indeed binders of Tdp1, thus complementing our inhibition data.
pET-28a(+) plasmid encoding recombinant Tdp1 (residues 149–608) was obtained from GenScript. E. coli BL21(DE3) was used for recombinant protein production. Protein production was induced with 1 mM IPTG at 28 °C with overnight incubation. Tdp1 was purified using affinity and size exclusion chromatography. Fluorescence was measured using a PerkinElmer EnSpire Multimode Reader. Tdp1 concentration was 10 μM with varying compound concentrations. The buffer was 20 mM Tris and 250 mM NaCl (pH 8). The excitation wavelength was 280 nm and intrinsic fluorescence was measured at 350 nm. Control experiments with Tdp1 or the compound on its own were also conducted. Background fluorescence arising from the compounds was subtracted from the final spectrum. The total volume per well was 30 μL. The dissociation constant (KD) was calculated using Equation (1), which takes non-specific binding into account. y = Bmaxx/(KD + x) + Nsx(1) where y denotes the changes in fluorescence intensity; x denotes the concentration of the compounds; Bmax denotes the maximum changes in fluorescence intensity; and Ns is a scaling factor for non-specific binding. Experiments were conducted in triplicate.

T2 sequence (Q9NUW8 149-608): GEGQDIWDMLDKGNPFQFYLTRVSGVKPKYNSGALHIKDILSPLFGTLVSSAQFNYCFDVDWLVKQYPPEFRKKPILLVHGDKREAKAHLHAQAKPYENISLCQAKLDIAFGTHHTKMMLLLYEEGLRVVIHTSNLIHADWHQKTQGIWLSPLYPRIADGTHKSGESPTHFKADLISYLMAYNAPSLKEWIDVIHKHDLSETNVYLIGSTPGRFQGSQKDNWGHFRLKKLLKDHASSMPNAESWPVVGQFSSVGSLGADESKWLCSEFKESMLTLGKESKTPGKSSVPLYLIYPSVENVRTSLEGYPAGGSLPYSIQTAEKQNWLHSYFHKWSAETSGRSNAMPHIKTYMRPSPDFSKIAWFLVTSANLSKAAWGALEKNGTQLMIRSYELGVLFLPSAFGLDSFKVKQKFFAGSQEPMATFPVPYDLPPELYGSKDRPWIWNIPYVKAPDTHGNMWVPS
T1 sequence (Q9NUW8 whole entry): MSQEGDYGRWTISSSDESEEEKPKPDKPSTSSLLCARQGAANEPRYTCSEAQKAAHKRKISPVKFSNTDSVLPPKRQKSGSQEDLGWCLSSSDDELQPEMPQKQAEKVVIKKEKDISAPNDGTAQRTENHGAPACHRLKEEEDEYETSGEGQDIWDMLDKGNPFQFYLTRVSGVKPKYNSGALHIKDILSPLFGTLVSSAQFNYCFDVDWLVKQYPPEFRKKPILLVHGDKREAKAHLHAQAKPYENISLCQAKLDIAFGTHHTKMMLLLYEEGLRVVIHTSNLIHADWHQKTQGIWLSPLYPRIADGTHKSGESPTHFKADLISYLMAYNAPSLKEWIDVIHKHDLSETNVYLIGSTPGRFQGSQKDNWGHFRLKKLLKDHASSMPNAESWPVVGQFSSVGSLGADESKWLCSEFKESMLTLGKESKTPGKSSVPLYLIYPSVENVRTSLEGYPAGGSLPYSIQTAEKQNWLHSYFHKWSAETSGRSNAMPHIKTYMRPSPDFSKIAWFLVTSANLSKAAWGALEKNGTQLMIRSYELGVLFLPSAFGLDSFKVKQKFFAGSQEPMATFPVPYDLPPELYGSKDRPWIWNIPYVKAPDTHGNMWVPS

In assay [1], `COc1ccc(/C=N/Nc2nc(-c3c(O)c(C)c(O)c4c3OC3=CC(O)=C(C(C)=O)C(=O)[C@]34C)cs2)cc1Cn1nc(C)c([N+](=O)[O-])c1C` [(−)-17k, (2S)-4-Acetyl-10-{2-[(E)-2-({3-[(3,5-dimethyl-4-nitro-1H-pyrazol-1-yl)methyl]-4-methoxyphenyl}methylidene)hydrazin-1-yl]-1,3-thiazol-4-yl}-5,11,13-trihydroxy-2,12-dimethyl-8-oxatricyclo[7.4.0.0^2,7]trideca-1(9),4,6,10,12-pentaen-3-one] came in with an IC50 of 0.046 ± 0.005 µM. Also, in assay [2], the Kd turned out to be 142 ± 11 µM.
The corresponding values for `CC(=O)C1=C(O)C=C2Oc3c(-c4csc(N/N=C/c5cnc[nH]5)n4)c(O)c(C)c(O)c3[C@]2(C)C1=O` [(−)-16o, 5-[(1E)-(2-{4-[(1S)-12-Acetyl-3,5,11-trihydroxy-1,4-dimethyl-13-oxo-8-oxatricyclo[7.4.0.0^2,7]trideca-2(7),3,5,9,11-pentaen-6-yl]-1,3-thiazol-2-yl}hydrazin-1-ylidene)methyl]-1H-imidazol-1-ium bromide] are 0.57 ± 0.109 µM and 51 ± 4 µM.
The corresponding values for `CC(=O)C1=C(O)C=C2Oc3c(-c4csc(N/N=C/c5cccnc5)n4)c(O)c(C)c(O)c3[C@]2(C)C1=O` [(−)-16c, 3-[(1E)-(2-{4-[(1S)-12-Acetyl-3,5,11-trihydroxy-1,4-dimethyl-13-oxo-8-oxatricyclo[7.4.0.0^2,7]trideca-2(7),3,5,9,11-pentaen-6-yl]-1,3-thiazol-2-yl}hydrazin-1-ylidene)methyl]pyridin-1-ium bromide] are 0.154 ± 0.018 µM and 262 ± 25 µM.
The corresponding values for `CC(=O)C1=C(O)C=C2Oc3c(-c4csc(N/N=C/c5c[nH]c6ccccc56)n4)c(O)c(C)c(O)c3[C@@]2(C)C1=O` [(+)-16p, (2R)-4-Acetyl-5,11,13-trihydroxy-2,12-dimethyl-10-{2-[(E)-2-[(1H-indole-3-yl)methylidene] hydrazin-1-yl]-1,3-thiazol-4-yl}-8-oxatricyclo[7.4.0.0^2,7]trideca-1(9),4,6,10,12-pentaen-3-one] are 0.138 ± 0.003 µM and 268 ± 11 µM.
For `COc1ccc(/C=N/Nc2nc(-c3c(O)c(C)c(O)c4c3OC3=CC(O)=C(C(C)=O)C(=O)[C@@]34C)cs2)cc1Cn1nc(C)c([N+](=O)[O-])c1C` [(+)-17k, (2R)-4-Acetyl-10-{2-[(E)-2-({3-[(3,5-dimethyl-4-nitro-1H-pyrazol-1-yl)methyl]-4-methoxyphenyl}methylidene)hydrazin-1-yl]-1,3-thiazol-4-yl}-5,11,13-trihydroxy-2,12-dimethyl-8-oxatricyclo[7.4.0.0^2,7]trideca-1(9),4,6,10,12-pentaen-3-one], the concentration for half-maximal inhibition (IC50) in assay [1] was found to be 0.054 ± 0.008 µM. Further, the Kd in assay [2] worked out at 156 ± 8 µM.
As to “(2R)-4-Acetyl-5,11,13-trihydroxy-2,12-dimethyl-10-{2-[(E)-2-[(thiophen-3-yl)methylidene] hydrazin-1-yl]-1,3-thiazol-4-yl}-8-oxatricyclo[7.4.0.0^2,7]trideca-1(9),4,6,10,12-pentaen-3-one amine [(+)-16j]”, half-maximal inhibition in assay [1] (IC50) was put at 0.107 ± 0.031 µM. In addition, the Kd in assay [2] came out at 65 ± 7 µM.
The corresponding values for `COc1ccc(/C=N/Nc2nc(-c3c(O)c(C)c(O)c4c3OC3=CC(O)=C(C(C)=O)C(=O)[C@]34C)cs2)cc1COc1ccc(F)c(Cl)c1` [(−)-17d, (2S)-4-Acetyl-10-{2-[(E)-2-({3-[(3-chloro-4-fluorophenoxy)methyl]-4-methoxyphenyl}methylidene)hydrazin-1-yl]-1,3-thiazol-4-yl}-5,11,13-trihydroxy-2,12-dimethyl-8-oxatricyclo[7.4.0.0^2,7]trideca-1(9),4,6,10,12-pentaen-3-one] are 0.018 ± 0.001 µM and 76 ± 5 µM.
As to `COc1ccc(/C=N/Nc2nc(-c3c(O)c(C)c(O)c4c3OC3=CC(O)=C(C(C)=O)C(=O)[C@@]34C)cs2)cc1COc1ccc(F)c(Cl)c1` [(+)-17d, (2R)-4-Acetyl-10-{2-[(E)-2-({3-[(3-chloro-4-fluorophenoxy)methyl]-4-methoxyphenyl}methylidene)hydrazin-1-yl]-1,3-thiazol-4-yl}-5,11,13-trihydroxy-2,12-dimethyl-8-oxatricyclo[7.4.0.0^2,7]trideca-1(9),4,6,10,12-pentaen-3-one], the IC50 in assay [1] was found to be 0.077 ± 0.003 µM. Also, the Kd in assay [2] stood at 130 ± 29 µM.
For `COc1ccc(/C=N/Nc2nc(-c3c(O)c(C)c(O)c4c3OC3=CC(O)=C(C(C)=O)C(=O)[C@@]34C)cs2)cc1CN1CCN(c2ccc(F)cc2)CC1` [(+)-17i, (2R)-4-Acetyl-10-{2-[(E)-2-[(3-{[4-(4-fluorophenyl)piperazin-1-yl]methyl}-4-methoxyphenyl)methylidene]hydrazin-1-yl]-1,3-thiazol-4-yl}-5,11,13-trihydroxy-2,12-dimethyl-8-oxatricyclo[7.4.0.0^2,7]trideca-1(9),4,6,10,12-pentaen-3-one], in assay [1], inhibition was half-maximal at 0.08 ± 0.007 µM (IC50). The dissociation constant Kd in assay [2] was 161 ± 22 µM.
The corresponding values for `CC(=O)C1=C(O)C=C2Oc3c(-c4csc(N/N=C/c5ccncc5)n4)c(O)c(C)c(O)c3[C@@]2(C)C1=O` [(+)-16a, 4-[(1E)-(2-{4-[(1R)-12-Acetyl-3,5,11-trihydroxy-1,4-dimethyl-13-oxo-8-oxatricyclo[7.4.0.0^2,7]trideca-2(7),3,5,9,11-pentaen-6-yl]-1,3-thiazol-2-yl}hydrazin-1-ylidene)methyl]pyridin-1-ium bromide] are 0.16 ± 0.016 µM and 139 ± 32 µM.
The corresponding values for `COc1ccc(/C=N/Nc2nc(-c3c(O)c(C)c(O)c4c3OC3=CC(O)=C(C(C)=O)C(=O)[C@@]34C)cs2)cc1COc1ccccc1F` [(+)-17c, (2R)-4-Acetyl-10-{2-[(E)-2-({3-[(2-fluorophenoxy)methyl]-4-methoxyphenyl}methylidene)hydrazin-1-yl]-1,3-thiazol-4-yl}-5,11,13-trihydroxy-2,12-dimethyl-8-oxatricyclo[7.4.0.0^2,7]trideca-1(9),4,6,10,12-pentaen-3-one] are 0.041 ± 0.007 µM and 204 ± 23 µM.
In turn, `CC(=O)C1=C(O)C=C2Oc3c(-c4csc(N/N=C/c5cccs5)n4)c(O)c(C)c(O)c3[C@]2(C)C1=O` [(−)-16g, (2S)-4-Acetyl-5,11,13-trihydroxy-2,12-dimethyl-10-{2-[(E)-2-[(thiophen-2-yl)methylidene]hydrazin-1-yl]-1,3-thiazol-4-yl}-8-oxatricyclo[7.4.0.0^2,7]trideca-1(9),4,6,10,12-pentaen-3-one] registered an IC50 in assay [1] of 0.169 ± 0.006 µM. For the same molecule, in assay [2], the Kd came out at 281 ± 25 µM.
The corresponding values for `CC(=O)C1=C(O)C=C2Oc3c(-c4csc(N/N=C/c5ccco5)n4)c(O)c(C)c(O)c3[C@@]2(C)C1=O` [(+)-16k, (2R)-4-Acetyl-5,11,13-trihydroxy-2,12-dimethyl-10-{2-[(E)-2-[(furan-2-yl)methylidene] hydrazin-1-yl]-1,3-thiazol-4-yl}-8-oxatricyclo[7.4.0.0^2,7]trideca-1(9),4,6,10,12-pentaen-3-one] are 0.12 ± 0.015 µM and 67 ± 9 µM.
The corresponding values for `CC(=O)C1=C(O)C=C2Oc3c(-c4csc(N/N=C/c5ccc[nH]5)n4)c(O)c(C)c(O)c3[C@]2(C)C1=O` [(−)-16m, (2S)-4-Acetyl-5,11,13-trihydroxy-2,12-dimethyl-10-{2-[(E)-2-[(1H-pyrrol-2-yl)methylidene] hydrazin-1-yl]-1,3-thiazol-4-yl}-8-oxatricyclo[7.4.0.0^2,7]trideca-1(9),4,6,10,12-pentaen-3-one] are 0.018 ± 0.001 µM and 354 ± 40 µM.
The corresponding values for `CC(=O)C1=C(O)C=C2Oc3c(-c4csc(N/N=C/c5cccn5C)n4)c(O)c(C)c(O)c3[C@@]2(C)C1=O` [(+)-16n, (2R)-4-Acetyl-5,11,13-trihydroxy-2,12-dimethyl-10-{2-[(E)-2-[(1-methyl-pyrrol-2-yl)methylidene]hydrazin-1-yl]-1,3-thiazol-4-yl}-8-oxatricyclo[7.4.0.0^2,7]trideca-1(9),4,6,10,12-pentaen-3-one] are 0.151 ± 0.014 µM and 719 ± 17 µM.
